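Test compounds were applied to cells in 96-well plates for 48 hours at 5 doses. Abbreviation: GI50, concentration required for 50% inhibition of growth.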 Activity calls are given as the source filed them. Rule as the data show it: active = GI50 up to about 1.1 µM and inactive = higher.
Legend:
Test in all cases: inhibition of tumour cell growth, NCI panel, 48 h
SNB-75 = test system: SNB-75
CCRF-CEM = test system: CCRF-CEM
UACC-62 = test system: UACC-62
HOP-92 = test system: HOP-92
MOLT-4 = test system: MOLT-4
K562 = test system: K562
HL-60 = test system: HL-60
Malme-3M = test system: Malme-3M
SF-295 = test system: SF-295
SK-MEL-2 = test system: SK-MEL-2
SW-620 = test system: SW-620
SK-MEL-5 = test system: SK-MEL-5
OVCAR-5 = test system: OVCAR-5
RPMI-8226 = test system: RPMI-8226
SN12C = test system: SN12C
TK-10 = test system: TK-10
U-251 = test system: U-251
SNB-19 = test system: SNB-19
UO-31 = test system: UO-31
HCT-15 = test system: HCT-15

Measured: GI50

ON(Cc1ccccc1)C(=S)c1ccccc1
inactive: SNB-75 19 µM | UACC-62 2.43 µM | HOP-92 50.7 µM | K562 3.27 µM | Malme-3M 25.4 µM | SF-295 3.42 µM | SK-MEL-2 2.62 µM | SW-620 4.23 µM | SK-MEL-5 4.47 µM | OVCAR-5 17.9 µM | RPMI-8226 2.77 µM | SN12C 8.41 µM | TK-10 21.8 µM | U-251 3.64 µM | SNB-19 17.7 µM | UO-31 4.03 µM
active: CCRF-CEM 0.342 µM | MOLT-4 1.09 µM | HL-60 0.927 µM
2.6 µM: HCT-15

O=c1cc(O)c1=O
> 100 µM: HCT-15
inactive: SNB-75 > 100 µM | CCRF-CEM > 100 µM | UACC-62 > 100 µM | HOP-92 > 100 µM | MOLT-4 > 100 µM | K562 > 100 µM | HL-60 > 100 µM | Malme-3M > 100 µM | SF-295 > 100 µM | SK-MEL-2 > 100 µM | SW-620 > 100 µM | SK-MEL-5 > 100 µM | OVCAR-5 > 100 µM | RPMI-8226 > 100 µM | SN12C > 100 µM | TK-10 > 100 µM | U-251 > 100 µM | SNB-19 > 100 µM | UO-31 > 100 µM

CC1=CC(=O)CC2(C)CCC(C(C)CC(=O)CC(C)C)CC12 (stereo not given)
inactive: SNB-75 > 100 µM | CCRF-CEM 23.9 µM | UACC-62 25.5 µM | HOP-92 31.4 µM | MOLT-4 18.3 µM | K562 24.5 µM | HL-60 4.39 µM | Malme-3M 24.9 µM | SF-295 32.5 µM | SK-MEL-2 78.9 µM | SW-620 22.7 µM | SK-MEL-5 20.4 µM | OVCAR-5 > 100 µM | RPMI-8226 20.2 µM | SN12C 17.7 µM | TK-10 > 100 µM | U-251 41.9 µM | SNB-19 > 100 µM | UO-31 31.2 µM
38.6 µM: HCT-15
